Test results from patent US20020028807A1, “Non-nucleoside reverse transcriptase inhibitors” (priority 2000, published 2002).

Tests used:
HIV-1 RT G190A = target: T1, HIV-1 RT G190A (Human immunodeficiency virus type 1 group M subtype B, UniProt P03366, G789A); test: Reverse transcriptase (RT) assay, G190A mutant; format: biochemical
T1 construct: an HIV RT clone pKRT2 containing only the RT p66 gene regulated by the lac operon/trc promoter; made in house; host or cells: E. coli JM109, vector pKK233-2
From the text: (§1) Among the enzymes for which Human Immunodeficiency Virus (HIV-1) encodes is a reverse transcriptase (1), so-named because it transcribes a DNA copy from an RNA template. This activity can be quantitatively measured in a cell-free enzyme assay and is based upon the observation that reverse transcriptase is able to use a synthetic template poly r(C) primed with a biotinylated oligo d(G) to transcribe a radio-labelled DNA strand utilising 3H-dGTP as a substrate. The assay described below utilises the wild-type enzyme (which is the predominant form of the enzyme observed in patients infected with HIV-1) and can also be used with mutant RT enzymes (for example, Y181C, prepared by site-directed mutagenesis in which the tyrosine residue at codon 181 has been replaced by a cysteine residue) in analogous assay conditions. This assay allows compounds to be evaluated for their effectiveness at inhibiting the mutant enzymes.
(§2) Some HIV-1 IIIB clone BH10 RT mutants were provided by Dr. C.-K. Shih (Boehringer Ingelheim Pharmaceutials Inc., U.S.A.) in the vector pKK233-2 (Pharmacia). Briefly an HIV RT clone pKRT2 containing only the RT p66 gene regulated by the lac operon/trc promoter was obtained from Dr. W. Summers (Yale University) (2). A variety of specific amino acid substitutions were introduced into the wild-type RT gene by site-directed mutagenesis. RT clones were subcloned into the pKK233-2 bacterial expression vector. Clones provided included wild-type, Val106Ala, Tyr181Cys, Tyr188Cys, Tyr188Leu, Gly190Ala and Pro236Leu. Others were made in-house by site-directed mutagenesis of the pKK233-2 RT clones including Lys103Asn, Lys103Asn/Tyr181Cys, Lys103Asn/Leu100Ile, Lys103Asn/Pro225His, and Lys103Asn/Val108Ile.
(§3) Purification of recombinant reverse transcriptase was performed using a combination of methods previously described (3). A single colony from a fresh plate of transformed JM109 cells was used to initiate growth of a pre-culture grown o/n at 37° C. Two liters of growth medium were inoculated with this pre-culture. At OD600˜1.5 (5-6 h at 37° C.), RT gene expression was induced with IPTG (1 mM final), and the fermentation was continued for a few more hours at 37° C. After centrifugation, supernatants were discarded while cell pellets were pooled and stored at −80° C. until purification. Cells were thawed at 4° C. overnight and suspended in lysis buffer (MES 50 mM pH 6, EDTA 1 mM, 10% v/v glyerol, 0.02% w/v OBG, 0.02% w/v sodium azide). Lysozyme was added and the mixture was incubated on ice for 40 minutes. After homogenization using a bounce in presence of lysozyme and sonication, the cells were centrifuged for 30 minutes. Supernatant (S1) was saved and stored at 4° C. The centrifuged pellet was resuspended in extraction buffer (MES 50 mM pH 6, KPO4 50 mM pH 6, KCl 100 mM, 10% v/v glycerol, 0.02% w/v OBG, 0.02% w/v sodium axide) and stirred for 30 minutes at 4° C. This second mixture was centrifuged again and the supernatant (S2) was saved. The above procedure was repeated 2 more times saving supernatants S3 and S4 and one last extraction was performed overnight (S5). Polymin P (0.005% final) was added to the combined supernatants to remove nucleic acids. This solution was stirred for 75 minutes at 4° C. and centrifuged for 1 h. The supernatant (SS1) was precipitated on ice with 20% w/v ammonium sulfate and stirred for 1 h at 4° C. The mixture was then centrifuged and the resulting supernatant (SS2) was precipitated with additional 40% w/v ammonium sulfate (60% total), stirred for 1 h and centrifuged again. The final pellet (P1) was stored overnight at 4° C. before undergoing purification the following day. All steps of the purification were performed at 4° C. unless otherwise stated.
(§4) Pellet (P1) was resuspended into MES 50 mM pH 6, KPO4 10 mM pH 6, KCl 100 mM, 10% v/v glycerol, 0.02% w/v OBG, 0.02% w/v sodium azide. The suspension was dialysis against the same buffer overnight using 12-14 kD MWCO dialysis tubing. […]

HIV-1 RT V106A = target: T2, HIV-1 RT V106A (Human immunodeficiency virus type 1 group M subtype B, UniProt P03366, V705A); test: Reverse transcriptase (RT) assay, V106A mutant; format: biochemical
T2 construct: an HIV RT clone pKRT2 containing only the RT p66 gene regulated by the lac operon/trc promoter; made in house; host or cells: E. coli JM109, vector pKK233-2
From the text: as §1, §2, §3, §4

HIV-1 RT K103N/L100I = target: T3, HIV-1 RT K103N/L100I (Human immunodeficiency virus type 1 group M subtype B, UniProt P03366, K702N/L699I); test: Reverse transcriptase (RT) assay, K103N/L100I mutant; format: biochemical
T3 construct: an HIV RT clone pKRT2 containing only the RT p66 gene regulated by the lac operon/trc promoter; made in house; host or cells: E. coli JM109, vector pKK233-2
From the text: as §1, §2, §3, §4

HIV-1 RT K103N/Y181C = target: T4, HIV-1 RT K103N/Y181C (Human immunodeficiency virus type 1 group M subtype B, UniProt P03366, K702N/Y780C); test: Reverse transcriptase (RT) assay, K103N/Y181C mutant; format: biochemical
T4 construct: an HIV RT clone pKRT2 containing only the RT p66 gene regulated by the lac operon/trc promoter; made in house; host or cells: E. coli JM109, vector pKK233-2
From the text: as §1, §2, §3, §4

HIV-1 RT wild-type (WT) = target: T5, HIV-1 RT wild-type (WT) (Human immunodeficiency virus type 1 group M subtype B, UniProt P03366); test: Reverse transcriptase (RT) assay, wild-type enzyme; format: biochemical
T5 construct: an HIV RT clone pKRT2 containing only the RT p66 gene regulated by the lac operon/trc promoter; made in house; host or cells: E. coli JM109, vector pKK233-2
From the text: as §1, §2, §3, §4

HIV-1 RT Y188L = target: T6, HIV-1 RT Y188L (Human immunodeficiency virus type 1 group M subtype B, UniProt P03366, Y787L); test: Reverse transcriptase (RT) assay, Y188L mutant; format: biochemical
T6 construct: an HIV RT clone pKRT2 containing only the RT p66 gene regulated by the lac operon/trc promoter; made in house; host or cells: E. coli JM109, vector pKK233-2
From the text: as §1, §2, §3, §4

[1] = system: HIV coding for wild-type reverse transcriptase (WT RT); test: ELISA (p24) assay of HIV replication in C8166 cell culture, wild-type RT virus; format: cell-based, HIV-1; details: Human immunodeficiency virus 1, C8166, 72 h, read-out: EC50 WT RT
Description: (§5) Compounds of the invention were tested for their ability to inhibit HIV replication in cell culture in a 96-well plate assay. Complete RPMI 1640, consisting of RPMI 1640+10% fetal bovine serum, 10 μg/ml gentamycin and 10 μM β-mercaptoethanol was used for dilution of the compound as well as cell growth medium. The T lymphocyte cell line C8166 was infected at a multiplicity of infection of 0.001 with viruses coding for wild-type and mutant reverse transcriptase. Cells were then incubated for three days in the presence of serial dilutions of the compounds of the invention. The supernatant was pooled from eight replica wells and the concentration of extracellular p24 was determined using a commercially available HIV-1 p24 antigen assay kit (Beckman-Coulter®). The level of inhibition (% inhibition) was calculated with the following equation: [formula]

HIV-1 RT K103N/P225H = target: T7, HIV-1 RT K103N/P225H (Human immunodeficiency virus type 1 group M subtype B, UniProt P03366, K702N/P824H); test: Reverse transcriptase (RT) assay, K103N/P225H mutant; format: biochemical
T7 construct: an HIV RT clone pKRT2 containing only the RT p66 gene regulated by the lac operon/trc promoter; made in house; host or cells: E. coli JM109, vector pKK233-2
From the text: as §1, §2, §3, §4

HIV-1 RT K103N = target: T8, HIV-1 RT K103N (Human immunodeficiency virus type 1 group M subtype B, UniProt P03366, K702N); test: Reverse transcriptase (RT) assay, K103N mutant; format: biochemical
T8 construct: an HIV RT clone pKRT2 containing only the RT p66 gene regulated by the lac operon/trc promoter; made in house; host or cells: E. coli JM109, vector pKK233-2
From the text: as §1, §2, §3, §4

HIV-1 RT K103N/V108I = target: T9, HIV-1 RT K103N/V108I (Human immunodeficiency virus type 1 group M subtype B, UniProt P03366, K702N/V707I); test: Reverse transcriptase (RT) assay, K103N/V108I mutant; format: biochemical
T9 construct: an HIV RT clone pKRT2 containing only the RT p66 gene regulated by the lac operon/trc promoter; made in house; host or cells: E. coli JM109, vector pKK233-2
From the text: as §1, §2, §3, §4

HIV-1 RT Y181C = target: T10, HIV-1 RT Y181C (Human immunodeficiency virus type 1 group M subtype B, UniProt P03366, Y780C); test: Reverse transcriptase (RT) assay, Y181C mutant; format: biochemical
T10 construct: an HIV RT clone pKRT2 containing only the RT p66 gene regulated by the lac operon/trc promoter; made in house; host or cells: E. coli JM109, vector pKK233-2
From the text: as §1, §2, §3, §4

HIV-1 RT Y188C = target: T11, HIV-1 RT Y188C (Human immunodeficiency virus type 1 group M subtype B, UniProt P03366, Y787C); test: Reverse transcriptase (RT) assay, Y188C mutant; format: biochemical
T11 construct: an HIV RT clone pKRT2 containing only the RT p66 gene regulated by the lac operon/trc promoter; made in house; host or cells: E. coli JM109, vector pKK233-2
From the text: as §1, §2, §3, §4

[2] = system: HIV coding for mutant reverse transcriptase K103N/Y181C; test: ELISA (p24) assay of HIV replication in C8166 cell culture, K103N/Y181C virus; format: cell-based, HIV-1; details: Human immunodeficiency virus 1, C8166, 72 h, read-out: EC50 K103N/Y181C
Description: as §5

[3] = system: HIV coding for mutant reverse transcriptase Y188L; test: ELISA (p24) assay of HIV replication in C8166 cell culture, Y188L virus; format: cell-based, HIV-1; details: Human immunodeficiency virus 1, C8166, 72 h, read-out: EC50 Y188L
Description: as §5

[4] = system: HIV coding for mutant reverse transcriptase K103N; test: ELISA (p24) assay of HIV replication in C8166 cell culture, K103N virus; format: cell-based, HIV-1; details: Human immunodeficiency virus 1, C8166, 72 h, read-out: EC50 K103N
Description: as §5

[5] = system: HIV coding for mutant reverse transcriptase V106A; test: ELISA (p24) assay of HIV replication in C8166 cell culture, V106A virus; format: cell-based, HIV-1; details: Human immunodeficiency virus 1, C8166, 72 h, read-out: EC50 V106A
Description: as §5

[6] = system: HIV coding for mutant reverse transcriptase Y181C; test: ELISA (p24) assay of HIV replication in C8166 cell culture, Y181C virus; format: cell-based, HIV-1; details: Human immunodeficiency virus 1, C8166, 72 h, read-out: EC50 Y181C
Description: as §5

Structure (SMILES)	IC50 (HIV-1 RT G190A) [nM]	IC50 (HIV-1 RT V106A) [nM]	IC50 (HIV-1 RT K103N/L100I) [nM]	IC50 (HIV-1 RT K103N/Y181C) [nM]	IC50 (HIV-1 RT wild-type (WT)) [nM]	IC50 (HIV-1 RT Y188L) [nM]	EC50 [1] [nM]	IC50 (HIV-1 RT K103N/P225H) [nM]	IC50 (HIV-1 RT K103N) [nM]	IC50 (HIV-1 RT K103N/V108I) [nM]	IC50 (HIV-1 RT Y181C) [nM]	IC50 (HIV-1 RT Y188C) [nM]	EC50 [2] [nM]	EC50 [3] [nM]	EC50 [4] [nM]	EC50 [5] [nM]	EC50 [6] [nM]
CCN1c2ncc(CCOc3ccnc4ccccc34)cc2C(=O)N(C)c2cccnc21 [compound 24, 5,11-Dihydro-11-ethyl-5-methyl-8-{2-(4-quinolinyloxy)ethyl}-6H-dipyrido[3,2-b:2′,3′-e][1,4]diazepin-6-one]	25	344	169	70	5.6	627	–	–	–	–	–	–	–	–	–	–	–
CCN1c2ncc(CCOc3cccc4ncccc34)cc2C(=O)Nc2c(C)cc(Cl)nc21 [compound 25, 2-Chloro-5,11-dihydro-11-ethyl-4-methyl-8-{2-(5-quinolinyloxy)ethyl}-6H-dipyrido[3,2-b:2′,3′-e][1,4]diazepin-6-one]	–	84	28	64	8	2540	2.2	23	19	38	17	–	–	–	–	–	–
CCN1C(=O)c2cc(CCOc3ccnc4ccccc34)cnc2N(CC)c2ncccc21 [compound 26, 5,11-Dihydro-5,11-diethyl-8-{2-(4-quinolinyloxy)ethyl}-6H-dipyrido[3,2-b:2′,3′-e][1,4]diazepin-6-one]	–	1750	–	200	8.9	5200	2.2	85	40	443	51	147	–	–	–	–	–
CCN1c2ncc(CCOc3cc[n+]([O-])c4ccccc34)cc2C(=O)N(C)c2ccc(C)nc21 [compound 28, 2,5-Dimethyl-5,11-dihydro-11-ethyl-8-{2-{(1-oxido-4-quinolinyl)oxy}ethyl}-6H-dipyrido[3,2-b:2′,3′-e][1,4]diazepin-6-one]	25	605	28	141	19	1190	1.3	25	–	35	–	9	7.5	70	2.3	42	2.6
